Reference: publication PMC9570838, “JND4135, a New Type II TRK Inhibitor, Overcomes TRK xDFG and Other Mutation Resistance In Vitro and In Vivo” (Molecules, 2022)

Legend:
[1] = system: BaF3 QKI-TRKB; assay: BaF3 cell proliferation, CCK-8 assay; details: Mus musculus, BaF3, 72 h, read-out: IC50 (nM ± SD) WT QKI-TRKB
Protocol: (§3) Murine BaF3 cells were purchased from JRCB cell bank. The BaF3 cell lines, which stably express natively-fused TRKA/B/C or various point mutants, were self-established by following previously described procedures. Briefly, NTRK genes were totally synthesized and cloned into pCDNA3.1(+) vectors (Invitrogen, Carlsbad, CA, USA). […] Stable strains were established by selection of cells 2 weeks post-transfection with 800 μg/mL G418 (Merck, Whitehouse Station, NJ) and further selection after the withdrawal of interleukin-3 (IL-3, R&D) for 2 weeks. All of BaF3 stable cell lines were verified by DNA sequencing, protein expression and anti-proliferation activity against positive drugs. […] All cells were grown at 37 °C in a humidified 5% CO2 atmosphere.
(§4) Cells were placed in 96-well plates (5000~8000/well) in complete medium. […] IC50 values were calculated by concentration-response curve fitting using GraphPad Prism 5.0 software. Each IC50 value is expressed as mean ± SD.

[2] = system: BaF3 ETV6-TRKC-G696C; assay: BaF3 cell proliferation, CCK-8 assay; details: Mus musculus, BaF3, 72 h, read-out: IC50 (nM ± SD) xDFG ETV6-TRKC-G696C
Protocol: as §3, §4

[3] = system: BaF3 ETV6-TRKB-F633L; assay: BaF3 cell proliferation, CCK-8 assay; details: Mus musculus, BaF3, 72 h, read-out: IC50 (nM ± SD) Gatekeeper ETV6-TRKB-F633L
Protocol: as §3, §4

[4] = system: BaF3-CD74-TRKA-WT cells (p-TRKA, ERK, PLCγ); assay: Western blot of TRK signaling; assay type: cell-based, Murine; details: 6 h treatment
Protocol: (§1) Cells were treated with various concentrations of each tested compound for a designated time. Then cells were lysed using 1 × SDS sample lysis buffer (CST recommended) with protease and phosphatase inhibitors. […] The films were blocked with 5% fat-free milk in TBS solution containing 0.5% Tween-20 for 4 h at room temperature, then incubated with the corresponding primary antibody (1:1000–1:200) overnight at 4 °C. After washing with TBST, HRP-conjugated secondary antibody was incubated for 2 h. The protein signals were visualized by ECL Western Blotting Detection Kit (Thermo Scientific, Waltham, MA, USA), and detected with Amersham Imager 600 system (GE, Boston, MA, USA).

[5] = system: BaF3-CD74-TRKA-G595R cells (p-TRKA, ERK, PLCγ); assay: Western blot of TRK signaling; assay type: cell-based, Murine; details: 6 h treatment
Protocol: as §1

[6] = system: BaF3-CD74-TRKA-G667C cells (p-TRKA, ERK, PLCγ); assay: Western blot of TRK signaling; assay type: cell-based, Murine; details: 6 h treatment
Protocol: as §1

[7] = system: BaF3 CD74-TRKA; assay: BaF3 cell proliferation, CCK-8 assay; details: Mus musculus, BaF3, 72 h, read-out: IC50 (nM ± SD) WT CD74-TRKA
Protocol: as §3, §4

[8] = system: BaF3 cells with gatekeeper mutations (TRKA^F589L, TRKB^F663L, TRKC^F617L); assay: BaF3 cell proliferation, summary over gatekeeper lines; details: Mus musculus, BaF3, read-out: IC50 in cells with gatekeeper mutations
Protocol: as §3, §4

[9] = system: Parental BaF3 (+IL3); assay: BaF3 cell proliferation, CCK-8 assay; details: Mus musculus, BaF3, 72 h, read-out: IC50 (nM ± SD) Parental BaF3 (+IL3)
Protocol: as §3, §4

[10] = system: BaF3 ETV6-TRKC-F617L; assay: BaF3 cell proliferation, CCK-8 assay; details: Mus musculus, BaF3, 72 h, read-out: IC50 (nM ± SD) Gatekeeper ETV6-TRKC-F617L
Protocol: as §3, §4

[11] = system: TRKC WT; assay: Bio-layer interferometry (BLI) Octet binding assay; design: species or system Human; details: TRKC-WT and TRKC-G696C
Protocol: (§2) Biolayer interferometry (BLI) assays were performed with the Octet K2 machine (ForteBio, Inc., Fremont, CA, USA). […] Excess biotin was removed by column chromatography (PD MiniTrap^TM G-25 Desalting column, Lot#17030445), and the residue was diluted to 400 μL with PBS and immobilized onto Super streptavidin biosensor chips (ForteBio, Cat#18–5057). A duplicate set of sensors was incubated in an assay buffer (PBS containing 0.02% Tween20 and 0.1% BSA) with 5% DMSO but without protein for use as a background binding control. Both sets of sensors were blocked with a solution of 10 μg/mL biocytin for 1 min at rt. Drug concentrations ranged from 0.74 to 180 nmol/L (6 doses). Data was analyzed by the FortéBio Data Analysis 8.1 software (FortéBio, Fremont, CA, USA) using a double reference subtraction (sample and sensor references).

[12] = target: T1, TRKC WT (Homo sapiens, UniProt Q16288); assay: Bio-layer interferometry (BLI) Octet binding assay
T1 construct: residues 526–839 from the kinase domain; made in house
Protocol: as §2

[13] = system: parental BaF3 cells (phospho-ERK); assay: Western blot in parental BaF3 cells (Figure S1); assay type: cell-based, Murine; details: parental BaF3 cells driven by IL-3 (Figure S1)
Protocol: as §1

[14] = Pharmacokinetics in rats (Table S4); assay type: in vivo
[15] = system: BaF3 CD74-TRKA-F589L; assay: BaF3 cell proliferation, CCK-8 assay; details: Mus musculus, BaF3, 72 h, read-out: IC50 (nM ± SD) Gatekeeper CD74-TRKA-F589L
Protocol: as §3, §4

[16] = system: BaF3 ETV6-TRKB-G709C; assay: BaF3 cell proliferation, CCK-8 assay; details: Mus musculus, BaF3, 72 h, read-out: IC50 (nM ± SD) xDFG ETV6-TRKB-G709C
Protocol: as §3, §4

T1 sequence (Q16288 526-839): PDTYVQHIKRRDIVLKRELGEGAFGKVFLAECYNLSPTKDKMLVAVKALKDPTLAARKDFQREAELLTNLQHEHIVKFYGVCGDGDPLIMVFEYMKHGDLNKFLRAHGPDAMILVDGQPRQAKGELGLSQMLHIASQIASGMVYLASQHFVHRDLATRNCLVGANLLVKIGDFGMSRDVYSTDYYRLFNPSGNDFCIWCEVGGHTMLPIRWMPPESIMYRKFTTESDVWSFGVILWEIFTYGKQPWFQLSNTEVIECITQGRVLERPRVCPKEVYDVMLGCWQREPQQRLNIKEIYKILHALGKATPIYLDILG

Question: Which IC50 [1] does the source give for `Cc1c(C#Cc2cnc3cnc(-c4ccc(N)cc4)cn23)cccc1C(=O)Nc1cc(CN2CCN(C)CC2)cc(C(C)C)c1` [JND4135, 3-((6-(4-aminophenyl)imidazo[1,2-a]pyrazin-3-yl)ethynyl)-N-(3-isopropyl-5-((4-methylpiperazin-1-yl)methyl)phenyl)-2-methylbenzamide] here?
Answer: 2.4 ± 0.6 nM

Question: And the IC50 [2]?
Answer: 1.3 ± 0.7 nM

Question: What about the IC50 [3] of the same molecule?
Answer: 178 ± 4.3 nM

Question: What about the “concentration from which phosphorylation of TRKA and downstream ERK, PLCγ decreased” value (“concentration … PLCγ decreased” below) [4] of the same molecule?
Answer: 8 nM

Question: What about the “concentration … PLCγ decreased” value [5] of the same molecule?
Answer: 40 nM

Question: And the “concentration … PLCγ decreased” value [6]?
Answer: 1.6 nM

Question: And the IC50 [7]?
Answer: 10.4 ± 3.2 nM

Question: And the IC50 [8]?
Answer: 37.3 to 178 nM

Question: And the IC50 [9]?
Answer: 1950 ± 25.1 nM

Question: What about the IC50 [10] of the same molecule?
Answer: 37.3 ± 14 nM

Question: And the “fold slower dissociation rate than that of control drugs” value [11]?
Answer: 3.81–27.85 fold

Question: What about the koff ([12]; Koff, read-out: dissociation rate with TRKC-WT) of the same molecule?
Answer: 0.000278 s⁻¹

Question: What about the Kd ([12]; read-out: Kd, binding affinity to TRKC-WT) of the same molecule?
Answer: 2.57 nM

Question: What about the “effect on phospho-ERK levels” value [13] of the same molecule?
Answer: increased the phospho-ERK levels

Question: What about the “absorption via oral administration” value [14] of the same molecule?
Answer: almost no absorption

Question: And the IC50 [15]?
Answer: 75 ± 12.7 nM

Question: And the IC50 [16]?
Answer: 18.7 ± 2.9 nM
